“Also recorded” adds a separate entry of the source. Where two headings read alike, the source gives them in different places. Bridge positions count the residues as written; N and C are the ends. Ends that are not written are not given here.
Columns and labels:
[1] = Reduction resistance of soluble optides (DTT or glutathione, RP-HPLC, LC/MS); format: physicochemical; settings: for reduction with 10 mM DTT: soluble optide, SDS-PAGE, mass spectrometry
[2] = target: T1, TEAD (Homo sapiens, UniProt P28347); assay: Surface display TEAD binding by flow cytometry (SDGF, 293F cells); settings: tetravalent staining, SDGF-TB1G1 cells
T1 construct: GST; made in house; host or cells: Hi5 insect cells (baculovirus, pIEX-BAC3 vector)
T1 sequence (P28347 209-426): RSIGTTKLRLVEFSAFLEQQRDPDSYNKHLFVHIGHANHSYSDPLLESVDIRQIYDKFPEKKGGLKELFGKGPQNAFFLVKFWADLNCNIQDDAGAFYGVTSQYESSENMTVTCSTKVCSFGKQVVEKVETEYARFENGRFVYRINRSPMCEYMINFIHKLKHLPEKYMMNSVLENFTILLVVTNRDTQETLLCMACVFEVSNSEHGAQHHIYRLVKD

[3] = target: T2, YAP:TEAD (Homo sapiens, UniProt P28347); format: biochemical; set-up: plasmid # 66853; host or cells: 293T cells, RIPA lysates
Target sequence in this assay (P28347 whole entry): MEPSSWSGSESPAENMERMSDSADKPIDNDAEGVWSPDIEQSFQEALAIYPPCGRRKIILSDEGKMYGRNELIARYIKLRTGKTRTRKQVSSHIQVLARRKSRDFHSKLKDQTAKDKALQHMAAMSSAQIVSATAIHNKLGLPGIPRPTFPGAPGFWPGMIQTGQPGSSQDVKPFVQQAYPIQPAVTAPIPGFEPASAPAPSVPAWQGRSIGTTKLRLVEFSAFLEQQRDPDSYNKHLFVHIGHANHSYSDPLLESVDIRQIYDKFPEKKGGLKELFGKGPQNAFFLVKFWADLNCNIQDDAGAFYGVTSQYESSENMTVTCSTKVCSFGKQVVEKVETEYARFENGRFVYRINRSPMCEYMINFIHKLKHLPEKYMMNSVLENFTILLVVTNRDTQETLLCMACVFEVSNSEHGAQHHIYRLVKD

[4] = target: T2, YAP:TEAD; format: binding; set-up: GST; made in house; host or cells: TEAD from Hi5 insect cells; settings: 293F cells expressing SDGF-YAP, 5 nM TEAD, 0-100 nM optide
Target sequence in this assay (P28347 209-426): as the sequence (P28347 209-426) above

[5] = format: physicochemical; settings: SYPRO Orange, 0.1 mg/mL in PBS, 20 to 95 °C
[6] = Circular dichroism thermostability; format: physicochemical; settings: 25-30 µM in 10 mM phosphate buffer pH 7.4, heated 20 to 95 °C at 2 °C per min, 220 nm
Procedure: Protein secondary structures were assessed using circular dichrosim (CD). CD spectra were measured with a Jasco J-720W spectropolarimeter using a 1.0 mm path length cell. Protein samples (25-30 µM) in 10 mM phosphate buffer (pH 7.4) were analyzed at a wavelength range of 190 to 260 nm. […] Data are expressed in terms of relative ellipticity [θ], reported in mdeg.

[7] = target: T2, YAP:TEAD; format: cell-based; set-up: endogenous in cells; host or cells: HeLa cells; settings: HeLa cells, 5 µM optide with 5 µM dfTAT, 90 min; versus dfTAT alone, P < 0.0001
Target sequence in this assay (P28347 whole entry): as the sequence (P28347 whole entry) above

[8] = target: T3, chymotrypsin (Bos taurus, UniProt P00766); assay: Protease stability in surface display (SDPR), chymotrypsin; format: in vitro ADME; settings: 40 µg mL^-1 chymotrypsin, SDPR-TB1G2 on 293F cells, then 5 mM DTT and iFluor 647 anti-6xHis staining
T3 construct: purchased Promega V1062

[9] = tested on: HeLa cells; assay: Cell penetration of DyLight 488 labelled optide in HeLa cells; format: cell-based; settings: 5 µM optide without dfTAT
[10] = target: T4, trypsin (Sus scrofa, UniProt P00761); assay: Protease stability in surface display (SDPR), trypsin; format: in vitro ADME; set-up: purchased Promega V5111; settings: 40 µg mL^-1 trypsin, SDPR-TB1G2 on 293F cells, then 5 mM DTT and iFluor 647 anti-6xHis staining
T4 sequence (P00761 9-231): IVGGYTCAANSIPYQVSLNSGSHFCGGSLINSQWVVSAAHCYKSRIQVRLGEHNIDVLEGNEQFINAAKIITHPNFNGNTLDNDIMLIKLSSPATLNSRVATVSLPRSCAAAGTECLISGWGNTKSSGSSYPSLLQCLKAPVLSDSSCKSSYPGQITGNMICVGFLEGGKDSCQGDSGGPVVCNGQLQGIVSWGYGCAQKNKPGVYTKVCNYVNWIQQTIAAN

[11] = target: T1, TEAD; assay: Reduction resistance of surface displayed optides (GSH or DTT, then TEAD binding); format: physicochemical; settings: 10 mM glutathione for 5 mins, then TEAD binding (20 nM, 2-step stain)
[12] = target: T4, trypsin

CC[C@H](C)[C@@H]1NC(=O)[C@H](CC(=O)O)NC(=O)CNC(=O)[C@H](CCCCN)NC(=O)[C@H](CCCCN)NC(=O)[C@@H]2CSSC[C@@H](C(=O)N3CCC[C@H]3C(=O)O)NC(=O)[C@H](Cc3ccccc3)NC(=O)[C@H](CC(C)C)NC(=O)[C@@H]3CSSC[C@H](NC(=O)[C@H](CSSC[C@H](NC(=O)[C@H](CCC(=O)O)NC(=O)[C@H](CCCCN)NC(=O)[C@H](C)NC(=O)[C@H](CCCNC(=N)N)NC(=O)[C@H](CCC(=O)O)NC(=O)[C@@H](NC(=O)[C@H](Cc4ccc(O)cc4)NC(=O)[C@H](CCC(=O)O)NC(=O)[C@H](CC(=O)O)NC(=O)[C@@H]4CCCN4C(=O)[C@H](CO)NC(=O)CN)[C@@H](C)CC)C(=O)N2)NC(=O)[C@H](CCC(N)=O)NC1=O)C(=O)N[C@@H](CC(C)C)C(=O)N[C@@H](CCCNC(=N)N)C(=O)N[C@@H](Cc1ccc(O)cc1)C(=O)N[C@@H](Cc1ccccc1)C(=O)N[C@@H](CCC(=O)O)C(=O)N[C@@H](CCC(=O)O)C(=O)N[C@@H](CO)C(=O)NCC(=O)N[C@@H](CC(=O)O)C(=O)N1CCC[C@H]1C(=O)N[C@@H](CC(N)=O)C(=O)N[C@@H](C(C)C)C(=O)N[C@@H](CCSC)C(=O)N[C@@H](CC(C)C)C(=O)N[C@@H]([C@@H](C)CC)C(=O)N3 [TB1G1]
reduction with 10 mM DTT [1]: complete
TEAD concentration at which binding was still detectible [2]: 64 pM
TEAD concentration of peak signal:noise [2]: 8 nM
inhibition of FLAG-YAP co-immunoprecipitation with Myc-TEAD ([3]; 293T cell lysate, 30 min at 4 °C): dose-dependent inhibition
inhibition of YAP:TEAD-dependent cell staining [4]: inhibited YAP:TEAD-dependent cell staining

CC[C@H](C)[C@H](NC(=O)[C@H](Cc1ccc(O)cc1)NC(=O)[C@H](CCC(=O)O)NC(=O)[C@H](CC(=O)O)NC(=O)[C@@H]1CCCN1C(=O)[C@H](CO)NC(=O)CN)C(=O)N[C@@H](CCC(=O)O)C(=O)N[C@@H](CCCNC(=N)N)C(=O)N[C@@H](C)C(=O)N[C@@H](CCCCN)C(=O)N[C@@H](CCC(=O)O)C(=O)N[C@H]1CSSC[C@@H]2NC(=O)[C@H](CCC(N)=O)NC(=O)[C@H]([C@@H](C)CC)NC(=O)[C@H](CC(=O)O)NC(=O)[C@H](CCC(N)=O)NC(=O)[C@H](CCCCN)NC(=O)[C@H](CCCCN)NC(=O)[C@H](CSSC[C@@H](C(=O)N3CCC[C@H]3C(=O)O)NC(=O)[C@H](Cc3ccccc3)NC(=O)[C@H](CC(C)C)NC(=O)[C@@H]3CSSC[C@H](NC2=O)C(=O)N[C@@H](CC(C)C)C(=O)N[C@@H](CCCNC(=N)N)C(=O)N[C@@H]([C@@H](C)CC)C(=O)N[C@@H](Cc2ccccc2)C(=O)N[C@@H](CC(=O)O)C(=O)N[C@@H](CCC(=O)O)C(=O)N[C@@H](CO)C(=O)N[C@@H](CCCCN)C(=O)N[C@@H](CC(=O)O)C(=O)N2CCC[C@H]2C(=O)N[C@@H](CC(N)=O)C(=O)N[C@@H](C(C)C)C(=O)N[C@@H](CCSC)C(=O)N[C@@H](CC(C)C)C(=O)N[C@@H]([C@@H](C)CC)C(=O)N3)NC1=O [TB1G2-W40P]
melting temperature [5]: no melting temperature could be determined
thermostability by circular dichroism [6]: identical before (Pre) and after (Post) incubation at 95 °C

CC[C@H](C)[C@H](NC(=O)[C@H](Cc1ccc(O)cc1)NC(=O)[C@H](CCC(=O)O)NC(=O)[C@H](CC(=O)O)NC(=O)[C@@H]1CCCN1C(=O)[C@H](CO)NC(=O)CN)C(=O)N[C@@H](CCC(=O)O)C(=O)N[C@@H](CCCNC(=N)N)C(=O)N[C@@H](C)C(=O)N[C@@H](CCCCN)C(=O)N[C@@H](CCC(=O)O)C(=O)N[C@H]1CSSC[C@@H]2NC(=O)[C@H](CCC(N)=O)NC(=O)[C@H]([C@@H](C)CC)NC(=O)[C@H](CC(=O)O)NC(=O)[C@H](CCC(N)=O)NC(=O)[C@H](CCCCN)NC(=O)[C@H](CCCCN)NC(=O)[C@H](CSSC[C@@H](C(=O)N[C@@H](Cc3c[nH]c4ccccc34)C(=O)O)NC(=O)[C@H](Cc3ccccc3)NC(=O)[C@H](CC(C)C)NC(=O)[C@@H]3CSSC[C@H](NC2=O)C(=O)N[C@@H](CC(C)C)C(=O)N[C@@H](CCCNC(=N)N)C(=O)N[C@@H]([C@@H](C)CC)C(=O)N[C@@H](Cc2ccccc2)C(=O)N[C@@H](CC(=O)O)C(=O)N[C@@H](CCC(=O)O)C(=O)N[C@@H](CO)C(=O)N[C@@H](CCCCN)C(=O)N[C@@H](CC(=O)O)C(=O)N2CCC[C@H]2C(=O)N[C@@H](CC(N)=O)C(=O)N[C@@H](C(C)C)C(=O)N[C@@H](CCSC)C(=O)N[C@@H](CC(C)C)C(=O)N[C@@H]([C@@H](C)CC)C(=O)N3)NC1=O [TB1G2]
stability under intracellular reducing conditions, soluble ([1]; 10 mM glutathione): no effect on TB1G2 stability
reduction with 10 mM DTT [1]: incomplete reduction
YAP:TEAD PLA speckles per nucleus [7]: reduction in speckles
protease stability in surface display, chymotrypsin [8]: no change in anti-6xHis staining
cell penetration [9]: failed to demonstrate cell penetration; also recorded: not yet cell penetrant
protease stability in surface display, trypsin [10]: no change in anti-6xHis staining
inhibition of YAP:TEAD-dependent cell staining [4]: much higher potency
melting temperature [5]: no melting temperature could be determined
thermostability by circular dichroism [6]: no evidence of altered TB1G2 structure up to 95 °C; also recorded: identical before (Pre) and after (Post) incubation at 95 °C
stability under intracellular reducing conditions, surface displayed [11]: no effect on TB1G2 stability

Beta/delta-agatoxin-6 [Peptide 3]
Trypsin Resistance [12]: 102%

GSAPPCKRDVDCSFECPKGGFCNDRLGTCDCF (also: bicyclic or more (positions not given here)) [Peptide 1, Putative defensin-like protein 257]
Trypsin Resistance [12]: 90%

GSDLVCYCRKRGCKRREHMNGTCRRGHLMYTLCCR (also: bicyclic or more (positions not given here)) [Peptide 10, Alpha-defensin 13]
Trypsin Resistance [12]: 43%

GSGICACRRRFCLNFEQFSGYCRVNGARYVRCCSRR (also: bicyclic or more (positions not given here)) [Peptide 9, Corticostatin-6]
Trypsin Resistance [12]: 65%

GSKDYCPGICNVAAVPDCDTLCISLGYSGGYCRAGRICCCNPK (also: bicyclic or more (positions not given here)) [Peptide 7, Uncharacterized protein]
Trypsin Resistance [12]: 96%

GSKEICERPNGSCRDFCLETEIHVGRCLNSQPCCLPL (also: bicyclic or more (positions not given here)) [Peptide 4, Beta-defensin 108B]
Trypsin Resistance [12]: 95%

GSPMTCEQAMASCEHTMCGYCQGPLYMTCIGITTDPECGLP (also: bicyclic or more (positions not given here)) [Peptide 6, Mating pheromone Er-2/Er-9]
Trypsin Resistance [12]: 97%

GSRGQCWSYSNCRAVCRDEGYVSGHCNYFGGACWCAS (also: bicyclic or more (positions not given here)) [Peptide 13, Putative uncharacterized protein]
Trypsin Resistance [12]: 52%

GSSVPCVSTRGSCKPPAPACCHPCASCQCRFFRSACSCRVLNVNC (also: bicyclic or more (positions not given here)) [Peptide 12, Agouti-signaling protein]
Trypsin Resistance [12]: 60%

GSVDGCQETCTKMIRCQFFTYSLFPEDCRGEKCKCSLR (also: bicyclic or more (positions not given here)) [Peptide 16, Plasma kallikrein]
Trypsin Resistance [12]: 50%

GSYTDCTESGQNLCLCEGSNVCGKGNKCILGSQGKDNQCVTG (also: bicyclic or more (positions not given here)) [Peptide 5, Hirudin-PA]
Trypsin Resistance [12]: 75%

H-GSPDEYIERAKECCKKGDIQCCLRYFEESGDPNVMLICLACP-OH (disulfide 13-21, 14-41, 22-38) [TB1G1-F38A]
inhibition of FLAG-YAP co-immunoprecipitation with Myc-TEAD [3]: not

Turripeptide IX-01 [Peptide 8]
Trypsin Resistance [12]: 96%

U9-theraphotoxin-Cj1a [Peptide 11]
Trypsin Resistance [12]: 46%

Venom defensin-like peptide A [Peptide 2]
Trypsin Resistance [12]: 84%
